Test results taken from ChEMBL document CHEMBL1201862, “PubChem BioAssay data set” (2004).
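Results reflect a 48-hour exposure of cells in 96-well plates to compound at five concentrations. The concentration for 50% growth inhibition is given as GI50.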 Calls of active or inactive are those of the source. No stated cut-off is given here; in the data, active = GI50 up to about 1.1 µM and inactive = higher.

Key:
Experiment in all cases: growth of human tumour cells (NCI), 48 h
786-0 = system: 786-0
A498 = system: A498
EKVX = system: EKVX
HCT-116 = system: HCT-116
Hs-578T = system: Hs-578T
KM12 = system: KM12
MCF7 = system: MCF7
MDA-MB-231 = system: MDA-MB-231
OVCAR-5 = system: OVCAR-5
OVCAR-8 = system: OVCAR-8
RXF 393 = system: RXF 393
SF-295 = system: SF-295
SF-539 = system: SF-539
SK-MEL-28 = system: SK-MEL-28
SK-MEL-5 = system: SK-MEL-5
SR = system: SR
TK-10 = system: TK-10
UACC-257 = system: UACC-257
UACC-62 = system: UACC-62
OVCAR-4 = system: OVCAR-4

| SMILES | GI50 (786-0) | GI50 (A498) | GI50 (EKVX) | GI50 (HCT-116) | GI50 (Hs-578T) | GI50 (KM12) | GI50 (MCF7) | GI50 (MDA-MB-231) | GI50 (OVCAR-5) | GI50 (OVCAR-8) | GI50 (RXF 393) | GI50 (SF-295) | GI50 (SF-539) | GI50 (SK-MEL-28) | GI50 (SK-MEL-5) | GI50 (SR) | GI50 (TK-10) | GI50 (UACC-257) | GI50 (UACC-62) | GI50 (OVCAR-4) |
| --- | --- | --- | --- | --- | --- | --- | --- | --- | --- | --- | --- | --- | --- | --- | --- | --- | --- | --- | --- | --- |
| CC(=O)O[C@H]1C(=O)[C@@]2(C)[C@H]([C@H](OC(=O)c3ccccc3)[C@]3(O)C[C@H](OC(=O)[C@H](O)[C@@H](NC(=O)c4ccccc4)c4cccc(N(C)C)c4)C(C)=C1C3(C)C)[C@]1(OC(C)=O)CO[C@@H]1C[C@@H]2O | 0.389 µM (active) | 0.579 µM (active) | > 32.1 µM (inactive) | 0.0174 µM (active) | 0.0276 µM (active) | 0.0198 µM (active) | 0.0164 µM (active) | 0.542 µM (active) | 0.157 µM (active) | 0.155 µM (active) | 0.221 µM (active) | 0.142 µM (active) | 0.0668 µM (active) | 0.575 µM (active) | 0.0417 µM (active) | 0.0322 µM (active) | 1.41 µM (inactive) | 0.714 µM (active) | 0.254 µM (active) |  |
| O=c1[nH]nc(Cc2ccccc2)n1/N=C/c1c[nH]c2ccccc12 | 43 µM (inactive) | > 100 µM (inactive) | 95.1 µM (inactive) | > 100 µM (inactive) | 25.4 µM (inactive) | > 100 µM (inactive) | > 100 µM (inactive) | 59 µM (inactive) | > 100 µM (inactive) | > 100 µM (inactive) |  | 27.7 µM (inactive) | > 100 µM (inactive) | > 100 µM (inactive) | > 100 µM (inactive) | > 100 µM (inactive) | 35.3 µM (inactive) | 96.2 µM (inactive) | 41.6 µM (inactive) | 42.5 µM (inactive) |
| Cn1c2c(c3ccccc31)CCN1C(=O)CCC21 (stereo not given) | > 10 µM (inactive) | > 10 µM (inactive) | > 10 µM (inactive) |  | > 10 µM (inactive) | > 10 µM (inactive) | > 10 µM (inactive) | > 10 µM (inactive) | > 10 µM (inactive) | > 10 µM (inactive) | > 10 µM (inactive) | > 10 µM (inactive) | > 10 µM (inactive) | > 10 µM (inactive) | > 10 µM (inactive) | > 10 µM (inactive) | > 10 µM (inactive) | > 10 µM (inactive) |  | > 10 µM (inactive) |
| CC(C)c1cc(CN(C)C)c(O)c(C(C)(C)C)c1 | 18.5 µM (inactive) | 20.7 µM (inactive) | 28.7 µM (inactive) | 36.9 µM (inactive) | 22.6 µM (inactive) | 21.4 µM (inactive) | 16.5 µM (inactive) | 36.2 µM (inactive) | > 100 µM (inactive) | 30.3 µM (inactive) | 18.8 µM (inactive) | 19 µM (inactive) |  | 28.1 µM (inactive) | 14.9 µM (inactive) |  | 35.1 µM (inactive) | 15.3 µM (inactive) | 54.1 µM (inactive) | 28.8 µM (inactive) |
| CC#CC#C/C=C1/C=CC2(CCCCO2)O1 (stereo not given) | > 100 µM (inactive) | > 100 µM (inactive) | > 100 µM (inactive) | > 100 µM (inactive) | > 100 µM (inactive) | > 100 µM (inactive) | 94.4 µM (inactive) | > 100 µM (inactive) | > 100 µM (inactive) | > 100 µM (inactive) |  | > 100 µM (inactive) | > 100 µM (inactive) | > 100 µM (inactive) | > 100 µM (inactive) | 35.6 µM (inactive) | > 100 µM (inactive) | > 100 µM (inactive) | 86.5 µM (inactive) | > 100 µM (inactive) |
| CC(=O)/C=c1\[nH]/c(=C\C=C\c2ccccc2)c(=O)n1/C=C1\C(=O)Oc2ccccc2C1=O | > 100 µM (inactive) | 15.3 µM (inactive) | 40.6 µM (inactive) | > 100 µM (inactive) | > 100 µM (inactive) | > 100 µM (inactive) | > 100 µM (inactive) | > 100 µM (inactive) | > 100 µM (inactive) | > 100 µM (inactive) |  |  | > 100 µM (inactive) | > 100 µM (inactive) | > 100 µM (inactive) | > 100 µM (inactive) | > 100 µM (inactive) | > 100 µM (inactive) | > 100 µM (inactive) | > 100 µM (inactive) |
| O=C1CSC(/C=C/c2ccccc2)N1c1ccc(-n2c(-c3ccccc3)nc3ccccc3c2=O)cc1 (stereo not given) | > 100 µM (inactive) | > 100 µM (inactive) | > 100 µM (inactive) | > 100 µM (inactive) | > 100 µM (inactive) | 33.1 µM (inactive) | 52.2 µM (inactive) | > 100 µM (inactive) | > 100 µM (inactive) | > 100 µM (inactive) |  | > 100 µM (inactive) | 71.4 µM (inactive) | > 100 µM (inactive) | 68.9 µM (inactive) | 37.1 µM (inactive) | > 100 µM (inactive) | > 100 µM (inactive) | 45.1 µM (inactive) | 19.4 µM (inactive) |
